The values that follow come from patent publication US20210308144A1 (priority 2021, published 2021).

Each structure is given as a SMILES string.

The term IC50 denotes the midpoint of a concentration-inhibition curve.

One series has as its target T1, human aromatase enzyme (human placental microsomes) (Homo sapiens, UniProt P11511).
T1 construct: evaluated against human placental microsomes (aromatase enzyme); from tissue; host or cells: human placenta (microsomes)
T1 sequence (P11511 1-503): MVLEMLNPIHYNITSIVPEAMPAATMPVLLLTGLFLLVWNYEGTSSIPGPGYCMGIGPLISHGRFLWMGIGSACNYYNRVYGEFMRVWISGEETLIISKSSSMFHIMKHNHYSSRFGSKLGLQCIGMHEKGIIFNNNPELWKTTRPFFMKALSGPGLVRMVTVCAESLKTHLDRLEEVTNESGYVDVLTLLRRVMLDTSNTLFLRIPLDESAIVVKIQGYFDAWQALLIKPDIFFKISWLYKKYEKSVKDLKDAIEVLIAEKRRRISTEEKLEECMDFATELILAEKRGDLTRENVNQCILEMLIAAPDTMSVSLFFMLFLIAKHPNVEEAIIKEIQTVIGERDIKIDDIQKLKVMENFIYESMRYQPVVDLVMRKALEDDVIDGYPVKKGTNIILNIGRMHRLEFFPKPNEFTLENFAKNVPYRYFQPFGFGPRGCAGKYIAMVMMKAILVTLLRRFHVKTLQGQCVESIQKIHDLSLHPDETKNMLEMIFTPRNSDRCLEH
The series can be described thus: Human placental aromatase inhibition assay.
Conditions: not given
The series is classed as biochemical.
In turn, `C=C1C[C@@H]2[C@H]([C@H](O)C[C@]3(C)[C@@H](O)CC[C@@H]23)[C@@]2(C)C=CC(=O)C=C12` [Compound 8, 11α,17β-dihydroxy-6-methylene-androsta-1,4-diene-3-one] registered an IC50 of 12800 ± 844 nM.

The series is the same for the next values; noted with them: human placental microsomes; testosterone to 17β-estradiol conversion, UPLC; read-out: IC50 against human aromatase.
Take `CC1=CC(=O)C=C2CC[C@@H]3[C@H](CC[C@]4(C)C(=O)CC[C@@H]34)[C@@]12C` [Compound 1, atamestane, reference compound]: the 50% inhibitory concentration (IC50) came out at 13.8 ± 0.2 nM.
The same measure, in the same setting: then `CC1=CC(=O)C=C2CC[C@@H]3[C@H](CC[C@]4(C)C(=O)CC[C@@]34O)[C@@]12C` [Compound 2, 14α-hydroxy-1-methylandrosta-1,4-diene-3,17-dione], with 9.7 ± 0.72 nM; and `CCCCCCC(=O)O[C@H]1CC[C@H]2[C@@H]3CC[C@H]4CC(=O)[C@H](C)C[C@]4(C)[C@H]3CC[C@]12C` [Compound 3, drostanolone enanthate, reference compound], with 6.4 ± 0.06 nM; and `CC1=C[C@@]2(C)C(=CC1=O)CC[C@H]1[C@@H]3CC[C@H](O)[C@@]3(C)[C@H](O)C[C@@H]12` [Compound 4, 2-methylandrosta-12β,17β-dihydroxy-1,4-diene-3-one], with 4.23 ± 0.133 nM.
As for `C[C@@H]1C[C@@]2(C)[C@@H](CC[C@H]3[C@@H]4CC[C@H](O)[C@@]4(C)CC[C@@]32O)CC1=O` [Compound 5, 2α-methyl-9α,17β-dihydroxy-5α-androstan-3-one], the IC50 amounted to 793 ± 29.9 nM.

For the next series, the system named is BJ (human fibriblast) cell line. The series can be described thus: Cytotoxicity against BJ (human fibroblast) cell line.
Conditions: not given
For `CC1=CC(=O)C=C2CC[C@@H]3[C@H](CC[C@]4(C)C(=O)CC[C@@]34O)[C@@]12C` [Compound 2, 14α-hydroxy-1-methylandrosta-1,4-diene-3,17-dione], the “cytotoxicity against BJ cell line” value is on record as “non-cytotoxic”.
Consider `CC1=C[C@@]2(C)C(=CC1=O)CC[C@H]1[C@@H]3CC[C@H](O)[C@@]3(C)[C@H](O)C[C@@H]12` [Compound 4, 2-methylandrosta-12β,17β-dihydroxy-1,4-diene-3-one], for which the “cytotoxicity against BJ cell line” value is “non-cytotoxic”.
On the same count and under the same terms, the same measure for `C[C@@H]1C[C@@]2(C)[C@@H](CC[C@H]3[C@@H]4CC[C@H](O)[C@@]4(C)CC[C@@]32O)CC1=O` [Compound 5, 2α-methyl-9α,17β-dihydroxy-5α-androstan-3-one]: “non-cytotoxic”.
For the compound `C=C1C[C@@H]2[C@H]([C@H](O)C[C@]3(C)[C@@H](O)CC[C@@H]23)[C@@]2(C)C=CC(=O)C=C12` [Compound 8, 11α,17β-dihydroxy-6-methylene-androsta-1,4-diene-3-one], the “cytotoxicity against BJ cell line” value is given as “non-cytotoxic”.
